According to patent US20230053540A1, “TREATMENT OF LIVER INJURY” (Massachusetts Institute of Technology, priority 2019, published 2023):

Test system: hepatocytes
Assay: Seq-Well scRNA-Seq of hepatocytes after APAP overdose (signature scores, DEG vs untreated)
Format: in vivo, mouse
Settings: A24 vs untreated (UT)

Compound: CC(=O)Nc1ccc(O)cc1 [APAP, acetaminophen]
- avg_logFC Ces3a: −0.3687
- avg_logFC Ces1d: −0.4289
- avg_logFC Cfh: 0.4009
- avg_logFC Cfi: 0.2516
- avg_logFC Chchd2: −0.3949
- avg_logFC Clpx: −0.4047
- avg_logFC Cltc: 0.4381
- avg_logFC Cmah: 0.3616
- avg_logFC Cmbl: −0.3124
- avg_logFC Cml1: −0.3269
- avg_logFC Cml2: 0.2654
- avg_logFC Copa: 0.3451
- avg_logFC Cox4i1: −0.4542
- avg_logFC Cox5b: −0.3378
- avg_logFC Cox6c: −0.5028
- avg_logFC Cox7a2: −0.3635
- avg_logFC Cp: 0.3174
- avg_logFC Cpb2: 0.3222
- avg_logFC Cps1: 0.3245
- avg_logFC Creld2: 0.6087
- avg_logFC Csad: −0.5313
- avg_logFC Csde1: 0.3269
- avg_logFC Cth: −0.5109
- avg_logFC Ctsc: 0.3004
- avg_logFC Cxcl1: 0.4498
- avg_logFC Cyb5: −0.7048
- avg_logFC Cyb5r3: 0.339
- avg_logFC Cyp4a10: −0.7422
- avg_logFC Dcxr: −0.4107
- avg_logFC Ddt: −0.4224
- avg_logFC Dhcr24: 0.4238
- avg_logFC Dnajc3: 0.4564
- avg_logFC Dnajc12: 0.3221
- avg_logFC Dstn: 0.3243
- avg_logFC Ech1: −0.4291
- avg_logFC Eef1a1: 0.4393
- avg_logFC Eef2: 0.2701
- avg_logFC Efna1: 0.3361
- avg_logFC Egfr: 0.505
- avg_logFC Eif4g1: 0.3108
- avg_logFC Eif4g2: 0.466
- avg_logFC Elovl2: 0.4522
- avg_logFC Elovl3: −0.676
- avg_logFC Ephx2: −0.3693
- avg_logFC Etnk1: 0.3521
- avg_logFC Etnppl: −0.4283
- avg_logFC Fabp2: −0.3922
- avg_logFC Fdx1: −0.3447
- avg_logFC Fga: 0.8285
- avg_logFC Fgb: 0.745
- avg_logFC Fgg: 0.6805
- avg_logFC Fgl1: 0.8649
- avg_logFC Fn1: 0.6996
- avg_logFC Fndc3b: 0.3485
- avg_logFC Fos: 0.432
- avg_logFC Fxyd1: −0.3118
- avg_logFC Gadd45g: −0.614
- avg_logFC Gas5: −0.3362
- avg_logFC Gchfr: −0.3869
- avg_logFC Gjb2: 0.3911
- avg_logFC Glud1: 0.451
- avg_logFC Gm4076: −0.3255
- avg_logFC Gm5096: −0.3631
- avg_logFC Gm13775: −1.032
- avg_logFC Gm15564: 1.821
- avg_logFC Gm24270: 0.268
- avg_logFC Gm24601: 0.9844
- avg_logFC Gm26917: 0.8237
- avg_logFC Gm26924: 1.419
- avg_logFC Gnmt: −0.4604
- avg_logFC Gpx1: −0.508
- avg_logFC Grip2: 0.8779
- avg_logFC Gsta3: −0.6694
- avg_logFC Hamp: −0.8261
- avg_logFC Hao1: 0.323
- avg_logFC Hbb-bs: 1.043
- avg_logFC Hc: 0.3679
- avg_logFC Hdlbp: 0.5651
- avg_logFC Hint1: −0.4737
- avg_logFC Hint2: −0.3702
- avg_logFC Hmgcs2: −0.3173
- avg_logFC Hnf4a: 0.4549
- avg_logFC Hook1: 0.3274
- avg_logFC Hp: 0.4313
- avg_logFC Hpd: −0.3133
- avg_logFC Hs3st3b1: 0.343
- avg_logFC Hsd3b7: −0.3953
- avg_logFC Hsp90b1: 0.5342
- avg_logFC Hspa5: 0.6105
- avg_logFC Hspa8: −0.36
- avg_logFC Hspa13: 0.3548
- avg_logFC Hyou1: 0.8465
- avg_logFC Ibtk: 0.3311
- avg_logFC Igfbp1: −0.3162
- avg_logFC Igfbp2: −0.3451
- avg_logFC Iigp1: 0.4542
- avg_logFC Il6st: 0.3335
- avg_logFC Il13ra1: 0.303
- avg_logFC Inmt: −0.4435
- avg_logFC Insig1: 0.4655
- avg_logFC Ipo7: 0.2592
- avg_logFC Itih2: 0.2987
- avg_logFC Itih3: 0.4929
- avg_logFC Itih4: 0.5251
- avg_logFC Khk: −0.2976
- avg_logFC Kmo: 0.3022
- avg_logFC Kng1: 0.2658
- avg_logFC Lars2: 1.711
- avg_logFC Lman1: 0.2986
- avg_logFC Lpgat1: 0.3946
- avg_logFC Lrg1: 0.4368
- avg_logFC Lrp1: 0.5051
- avg_logFC Lrrc59: 0.3181
- avg_logFC Manf: 0.4689
- avg_logFC Mlec: 0.3246
- avg_logFC Mpc1: −0.2818
- avg_logFC Mtus1: 0.3621
- avg_logFC Mug2: 0.3704
- avg_logFC Mup3: −0.8062
- avg_logFC Mup4: −1.087
- avg_logFC Mup5: −1.371
- avg_logFC Mup6: −1.678
- avg_logFC Mup8: −0.6133
- avg_logFC Mup9: −1.847
- avg_logFC Mup11: −1.611
- avg_logFC Mup13: −0.6949
- avg_logFC Mup15: −1.235
- avg_logFC Mup16: −1.019
- avg_logFC Mup17: −1.8
- avg_logFC Mup18: −1.727
- avg_logFC Mup19: −1.699
- avg_logFC Mup20: −0.2819
- avg_logFC Mup21: −0.6977
- avg_logFC Myh9: 0.6391
- avg_logFC Nab1: 0.3342
- avg_logFC Nars: 0.3532
- avg_logFC Ndufa4: −0.4433
- avg_logFC Ndufb2: −0.3412
- avg_logFC Ndufb4: −0.3251
- avg_logFC Ndufb11: −0.4275
- avg_logFC Ndufs6: −0.3592
- avg_logFC Nedd4: 0.3774
- avg_logFC Nr1d2: 0.4306
- avg_logFC Nr5a2: 0.322
- avg_logFC Oat: −0.5212
- avg_logFC Oaz1: −0.3748
- avg_logFC Orm1: 0.3651
- avg_logFC Orm2: 0.2715
- avg_logFC P4hb: 0.4052
- avg_logFC Pdcd4: 0.4882
- avg_logFC Pdia3: 0.5938
- avg_logFC Pdia4: 0.4882
- avg_logFC Pdia6: 0.3365
- avg_logFC Pgrmc1: 0.3502
- avg_logFC Plg: 0.2617
- avg_logFC Pon1: −0.3227
- avg_logFC Prdx1: −0.2677
- avg_logFC Prg4: 0.4306
- avg_logFC Prkd3: 0.3665
- avg_logFC Pten: 0.3559
- avg_logFC Pzp: 0.416
- avg_logFC Qsox1: 0.3424
- avg_logFC Rab1: 0.3526
- avg_logFC Rdh7: −0.269
- avg_logFC Rdx: 0.3736
- avg_logFC Retsat: −0.3658
- avg_logFC Rnase4: 0.5178
- avg_logFC Rpn1: 0.4124
- avg_logFC Rps2: −0.3845
- avg_logFC Rps27l: −0.5485
- avg_logFC Rrbp1: 0.3069
- avg_logFC Rsp14: −0.2923
- avg_logFC S100a1: −0.3762
- avg_logFC Saa1: 0.5582
- avg_logFC Saa2: 0.9645
- avg_logFC Saa4: 0.3755
- avg_logFC Sar1b: −0.3176
- avg_logFC Sc5d: 0.345
- avg_logFC Scd1: 0.7267
- avg_logFC Sds: −0.407
- avg_logFC Sec61a1: 0.3139
- avg_logFC Sel1l: 0.336
- avg_logFC Selenbp2: −0.3833
- avg_logFC Sephs2: 0.89
- avg_logFC Sepp1: 0.4486
- avg_logFC Serp1: 0.3124
- avg_logFC Serpina1a: −0.6752
- avg_logFC Serpina1b: −0.3018
- avg_logFC Serpina1c: −0.4026
- avg_logFC Serpina1e: −0.2843
- avg_logFC Serpina3c: −0.4089
- avg_logFC Serpina3n: 0.4137
- avg_logFC Serpina10: 0.565
- avg_logFC Serpina1d: −0.494
- avg_logFC Slc3a1: 0.341
- avg_logFC Slc7a2: 0.3526
- avg_logFC Slc38a4: 0.2637
- avg_logFC Snord118: 0.3914
- avg_logFC Sod1: −0.3036
- avg_logFC Sparcl1: −0.2536
- avg_logFC Spcs3: 0.3942
- avg_logFC Ssr1: 0.3278
